Our source for the inhibition in vivo and UI values is ChEMBL document CHEMBL1938307, “Synthesis, pharmacological evaluation and docking studies of N-(benzo[d]thiazol-2-yl)-2-(piperazin-1-yl)acetamide analogs as COX-2 inhibitors” (Bioorg Med Chem Lett, 2012).

The test system of data set [1] is Rattus norvegicus. The data set can be described thus: Antiinflammatory activity in Wistar rat assessed as inhibition of carrageenan-induced paw edema at 30 mg/kg after 2 hrs. It counts as functional. A general note: Carrageenan injected into the paw causes an acute inflammation.
Data set [2] relates to Rattus norvegicus. The data set can be described thus: Ulcerogenic effect in Wistar rat assessed as lesions in stomach area at 90 mg/kg after 6 hrs. Set-up: dose 90 mg/kg. Format: toxicity, organism-based. The following applies: in vivo.
The subject of data set [3] is Rattus norvegicus. The data set can be described thus: Ulcerogenic effect in Wistar rat assessed as gastric bleeding at 90 mg/kg after 6 hrs. The conditions noted are these: in vivo. Set-up: dose 90 mg/kg. Format: toxicity, organism-based, Stomach.

`CCN1CCN(CC(=O)Nc2nc3ccccc3s2)CC1`: the inhibition in vivo at 30 mg/kg in the data set on Rattus norvegicus [1] came to 13%.

Take `O=C(CN1CCNCC1)Nc1nc2ccccc2s1`: the inhibition in vivo at 30 mg/kg in the data set with Rattus norvegicus [1] was found to be 41.3%. Besides, the UI with Rattus norvegicus [2] and in the data set on Rattus norvegicus [3] was 1.24 in each case. With `O=C(CN1CCCNCC1)Nc1nc2ccccc2s1`, in the data set with Rattus norvegicus [1], the inhibition in vivo at 30 mg/kg worked out at 8.6%.

With `O=C(CN1CCN(c2ccccc2)CC1)Nc1nc2ccccc2s1`, the inhibition in vivo at 30 mg/kg in the data set on Rattus norvegicus [1] came out at 23.9%. As for `COc1ccc2sc(NC(=O)CN3CCNCC3)nc2c1`, the inhibition in vivo at 30 mg/kg in the data set on Rattus norvegicus [1] is 2.17%.

For `CCN1CCN(CC(=O)Nc2nc3cc(OC)ccc3s2)CC1`, in the data set with Rattus norvegicus [1], the inhibition in vivo at 30 mg/kg was found to be 17.4%.

Consider `COc1ccc2sc(NC(=O)CN3CCCNCC3)nc2c1`, for which, in the data set with Rattus norvegicus [1], the inhibition in vivo at 30 mg/kg was determined as 17.4%. The same measure, in the same setting: next, `COc1ccc2sc(NC(=O)CN3CCN(c4ccccc4)CC3)nc2c1`: 21.7%; `O=C(CN1CCNCC1)Nc1nc2cc([N+](=O)[O-])ccc2s1`: 12.3%. Same read-out and setting: next, `CCN1CCN(CC(=O)Nc2nc3cc([N+](=O)[O-])ccc3s2)CC1`: 17.4%; `O=C(CN1CCCNCC1)Nc1nc2cc([N+](=O)[O-])ccc2s1`: 17.4%. Regarding `O=C(CN1CCN(c2ccccc2)CC1)Nc1nc2cc([N+](=O)[O-])ccc2s1`, the inhibition in vivo at 30 mg/kg in the data set on Rattus norvegicus [1] is 34.8%. The UI in the data set on Rattus norvegicus [2] and in the data set with Rattus norvegicus [3] was 1.21 each time. For the compound `COc1ccc2cc([C@H](C)C(=O)O)ccc2c1` [NAPROXEN], the inhibition in vivo at 30 mg/kg with Rattus norvegicus [1] is 71.7%. In addition, the UI in the data set with Rattus norvegicus [2] and with Rattus norvegicus [3] was 2.5 each time.

Consider `CS(=O)(=O)c1ccc(C2=C(c3ccccc3)C(=O)OC2)cc1` [ROFECOXIB], for which, in the data set with Rattus norvegicus [1], the inhibition in vivo at 30 mg/kg is 81%.

What is called inhibition in vivo is the percentage by which the read-out fell short of the control.
